Assay [1] concerns the target T1, OMT5 (Glycine max, UniProt F2YBA9).
T1 construct: full-length CDS, N-terminal His6 tag (pET-14b), E. coli BL21(DE3) pLysS, IMAC purified; primers based on mRNA BT098523
Description: HPLC-DAD and HPLC-MS/MS product detection. Type of assay: biochemical. The conditions noted are these: methyl acceptor; SAM 100 uM, MgCl2 150 uM, Tris pH 7.5, 35 °C, 1 h; product peonidin-3-O-glucoside.

In assay [2] the target is T2, UGT78K2 (Glycine max, UniProt G0WMC8).
T2 construct: full-length CDS, N-terminal His6 tag (pET-14b), E. coli BL21(DE3) pLysS, IMAC purified
T2 sequence (G0WMC8 1-447): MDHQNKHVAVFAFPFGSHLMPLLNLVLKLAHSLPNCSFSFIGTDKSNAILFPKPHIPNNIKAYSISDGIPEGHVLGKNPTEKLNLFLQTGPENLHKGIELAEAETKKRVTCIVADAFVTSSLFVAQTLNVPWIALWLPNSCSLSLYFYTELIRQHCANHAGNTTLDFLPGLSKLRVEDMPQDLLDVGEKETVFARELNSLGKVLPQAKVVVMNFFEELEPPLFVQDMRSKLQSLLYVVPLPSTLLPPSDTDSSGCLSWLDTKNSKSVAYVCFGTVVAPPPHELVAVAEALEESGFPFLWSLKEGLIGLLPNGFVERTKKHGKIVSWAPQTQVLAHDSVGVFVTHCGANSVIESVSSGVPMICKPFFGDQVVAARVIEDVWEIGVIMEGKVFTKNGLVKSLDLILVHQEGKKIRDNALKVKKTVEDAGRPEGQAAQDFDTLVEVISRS
Description: HPLC-DAD and HPLC-MS/MS product detection. Type of assay: biochemical. The settings on record: glucose acceptor; 5 mM UDP-glucose; 30 °C, 5 min; product cyanidin-3-O-glucoside.

This is an account of results in paper PMC3163566, “Combined analysis of transcriptome and metabolite data reveals extensive differences between black and brown nearly-isogenic soybean (Glycine max) seed coats enabling the identification of pigment isogenes” (BMC Genomics, 2011).

T1 sequence (F2YBA9 1-248): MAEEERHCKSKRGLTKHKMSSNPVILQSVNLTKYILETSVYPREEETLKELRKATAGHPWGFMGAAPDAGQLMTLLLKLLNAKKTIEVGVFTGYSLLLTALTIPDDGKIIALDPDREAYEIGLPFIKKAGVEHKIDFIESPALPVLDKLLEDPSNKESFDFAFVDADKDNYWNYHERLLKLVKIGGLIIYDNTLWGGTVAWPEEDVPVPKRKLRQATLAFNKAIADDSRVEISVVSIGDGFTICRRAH

As to `OC[C@H]1O[C@@H](Oc2cc3c(O)cc(O)cc3[o+]c2-c2ccc(O)c(O)c2)[C@H](O)[C@@H](O)[C@@H]1O` [cyanidin-3-O-glucoside], the “HPLC-DAD and HPLC-MS/MS product detection” value in assay [1] is “methyl donor and cyanidin-3-O-glucoside as the acceptor, the recombinant enzyme transferred a methyl group”. For `Oc1cc(O)c2cc(O)c(-c3ccc(O)c(O)c3)[o+]c2c1` [cyanidin], the “HPLC-DAD and HPLC-MS/MS product detection” value in assay [2] is “the recombinant enzyme transferred glucose to the 3-position of cyanidin to form cyanidin-3-O-glucoside”.
